According to PubChem BioAssay (NCI):
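Dose response: 5 concentrations. Exposure: 48 h. Format: 96-well plates. Endpoint: linear interpolation; highest concentration if not reached. TGI denotes the concentration required for complete inhibition of growth.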 Where a SMILES comes first, the peptide text is derived from it. The star is where a group is joined. Cbz = O=C(OCc1ccccc1)*; Boc = CC(C)(C)OC(=O)*; tBu = CC(C)(C)*

Legend:
Assay in all cases: inhibition of tumour cell growth, NCI panel, 48 h
[1] = system: SF-539 CNS
[2] = system: SF-268 CNS
[3] = system: MCF7 breast
[4] = system: HOP-62 NSCLC
[5] = system: OVCAR-8 ovarian
[6] = system: HS 578T breast
[7] = system: NCI-H226 lung
[8] = system: SNB-19 CNS
[9] = system: BT-549 breast
[10] = system: IGROV1 ovarian
[11] = system: CCRF-CEM leukemia
[12] = system: OVCAR-3 ovarian
[13] = system: SF-295 CNS
[14] = system: LOX IMVI melanoma
[15] = system: NCI-H23 lung
[16] = system: HCC-2998 colon
[17] = system: MDA-N

SMILES	TGI [1]	TGI [2]	TGI [3]	TGI [4]	TGI [5]	TGI [6]	TGI [7]	TGI [8]	TGI [9]	TGI [10]	TGI [11]	TGI [12]	TGI [13]	TGI [14]	TGI [15]	TGI [16]	TGI [17]
NC(N)=N/N=C/c1c(-c2cccc([N+](=O)[O-])c2)nc2n1CCS2	43.7 µM	46.6 µM	36.1 µM	> 100 µM	39.3 µM	32.1 µM	39 µM	32.1 µM	32.2 µM	30.9 µM	> 100 µM	63 µM	54.6 µM	73.1 µM	58.9 µM	48 µM	
CC(C)N1CN(C(C(=O)N[C@@H]2C(=O)N3C2SC(C)(C)C3C(=O)O)c2ccccc2)CSC1=S (stereo partly specified)	> 100 µM	> 100 µM		> 100 µM	> 100 µM			> 100 µM		> 100 µM	> 100 µM	> 100 µM	> 100 µM	> 100 µM	> 100 µM		
CC(=O)OCCOCn1cnc2c(Cl)nc(Cl)nc21		36.6 µM		36.4 µM	44.2 µM	40.4 µM	50.6 µM	> 100 µM	36.4 µM	30.6 µM	23.7 µM	27.2 µM		15.8 µM	36.1 µM	25.6 µM	32.9 µM
Cc1ccc(S(=O)(=O)OC(c2ccc(Cl)cc2Cl)C2OC(=O)c3ccccc32)cc1 (stereo unspecified)	> 100 µM	> 100 µM		> 100 µM	> 100 µM		> 100 µM	> 100 µM		> 100 µM	> 100 µM	> 100 µM	> 100 µM	> 100 µM	> 100 µM		
COc1ccc(-c2cc(=O)c3ccccc3[nH]2)c(OC)c1	> 100 µM	> 100 µM		> 100 µM	> 100 µM			> 100 µM		> 100 µM	> 100 µM	> 100 µM	> 100 µM	> 100 µM	> 100 µM		
CC(OC(C)(C)C)C(NC(=O)C(CCCCNC(=O)OC(C)(C)C)NC(=O)C(Cc1c[nH]c2ccccc12)NC(=O)C(Cc1ccccc1)NC(=O)OCc1ccccc1)C(=O)NC(Cc1ccccc1)C(=O)O (stereo unspecified) (Cbz-FWK(Boc)T(tBu)F-OH; configuration not given here)	59.9 µM	> 100 µM	> 100 µM	> 100 µM	> 100 µM	44.4 µM	> 100 µM	52.8 µM		98.9 µM	> 100 µM	85 µM	> 100 µM	> 100 µM	> 100 µM	> 100 µM	> 100 µM
CCOP(=O)(O)C1C(CO)OC(n2ccc(=O)[nH]c2=O)C1O (stereo unspecified)	> 100 µM	> 100 µM		> 100 µM	> 100 µM	> 100 µM	> 100 µM	> 100 µM	> 100 µM	> 100 µM	> 100 µM	> 100 µM	> 100 µM	> 100 µM		> 100 µM	> 100 µM
COC/C=C\[C@]1(O)CCCC[C@@H]1CC(OC)OC	> 100 µM	> 100 µM	> 100 µM	> 100 µM	> 100 µM	> 100 µM	> 100 µM	> 100 µM		> 100 µM	> 100 µM	> 100 µM	> 100 µM	> 100 µM	> 100 µM	> 100 µM	> 100 µM
